The structures appear in SMILES notation.

T1 sequence (P69905 2-142 limits assumed): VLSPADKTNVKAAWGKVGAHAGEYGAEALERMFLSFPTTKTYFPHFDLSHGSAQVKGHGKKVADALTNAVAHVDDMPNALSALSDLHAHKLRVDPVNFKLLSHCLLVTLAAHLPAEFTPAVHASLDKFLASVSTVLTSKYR
T1 sequence (P68871 2-147 limits assumed): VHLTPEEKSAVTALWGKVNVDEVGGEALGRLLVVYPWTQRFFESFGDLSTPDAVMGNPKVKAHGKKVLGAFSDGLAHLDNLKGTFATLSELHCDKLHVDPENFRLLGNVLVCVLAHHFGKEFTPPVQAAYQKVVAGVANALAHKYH

One experiment concerns the target T1, hemoglobin (20% hct blood) (Homo sapiens, UniProt P68871+P69905).
T1 construct: Normal whole blood was collected from adult healthy donors; from tissue; host or cells: normal human whole blood (red blood cells), adult healthy donors
The experiment is described as follows: Dose-dependent whole blood OEC studies. It is filed as cell-based. Conditions: 0.2 mM compound, 37° C., 1 hr. As to the method:
(§1) Materials: Normal whole blood was collected from adult healthy donors at the Virginia Commonwealth University after informed consent. The use of these human samples is in accordance with regulations of the IRB for Protection of Human Subjects. Compounds (50 mM-100 mM concentration in DMSO) were stored at 15° C. or room temperature until use.
To 2 ml 20% hct blood, 0.2 or 0.5 or 1 mM compound was added and kept shaking at 37° C. for 1 hr. OEC analysis was performed as described above to determine partial pressure of oxygen (pO2) and Hb oxygen saturation values (sO2). A control without compound but containing equivalent amount of DMSO was performed (1%). GBT440 was used as a positive control. Table 2 below lists the delta p50% values.
Take `CC(C)n1nccc1-c1ncn(C)c1COc1cccc(O)c1C=O` [Example 69, 2-hydroxy-6-((4-(1-isopropyl-1H-pyrazol-5-yl)-1-methyl-1H-imidazol-5-yl)methoxy)benzaldehyde]: the “delta p50 0.2 mM” value is −21.40%. The same measure, in the same setting: under `Cc1nc(-c2ccnn2C(C)C)c(COc2cccc(O)c2C=O)s1` [Example 70, 2-hydroxy-6-((4-(1-isopropyl-1H-pyrazol-5-yl)-2-methylthiazol-5-yl)methoxy)benzaldehyde] stands −10.40%; under `[2H]C([2H])(Oc1cccc(O)c1C=O)c1nccnc1-n1ccnc1C(C)C` [Example 72, 2-hydroxy-6-((3-(2-isopropyl-1H-imidazol-1-yl)pyrazin-2-yl)methoxy-d2)benzaldehyde], −5.10%. Take `CC(C)n1nccc1-c1nccc(F)c1COc1cccc(O)c1C=O` [Example 74, 2-((4-fluoro-2-(1-isopropyl-1H-pyrazol-5-yl)pyridin-3-yl)methoxy)-6-hydroxybenzaldehyde]: the “delta p50 0.2 mM” value is −15.8%. Take `[2H]C([2H])(Oc1cccc(O)c1C=O)c1c(F)ccnc1-c1ccnn1C(C)C` [Example 75, 2-((4-fluoro-2-(1-isopropyl-1H-pyrazol-5-yl)pyridin-3-yl)methoxy-d2)-6-hydroxybenzaldehyde]: the “delta p50 0.2 mM” value is listed as −13.0%.

The same experiment, now with this note: 0.5 mM compound, 37° C., 1 hr.
In the case of `CC(C)n1nccc1-c1ncn(C)c1COc1cccc(O)c1C=O` [Example 69, 2-hydroxy-6-((4-(1-isopropyl-1H-pyrazol-5-yl)-1-methyl-1H-imidazol-5-yl)methoxy)benzaldehyde], the “delta p50 0.5 mM” value was −41.80%. Same read-out and setting: then `Cc1nc(-c2ccnn2C(C)C)c(COc2cccc(O)c2C=O)s1` [Example 70, 2-hydroxy-6-((4-(1-isopropyl-1H-pyrazol-5-yl)-2-methylthiazol-5-yl)methoxy)benzaldehyde], with −21.90%. `[2H]C([2H])(Oc1cccc(O)c1C=O)c1nccnc1-n1ccnc1C(C)C` [Example 72, 2-hydroxy-6-((3-(2-isopropyl-1H-imidazol-1-yl)pyrazin-2-yl)methoxy-d2)benzaldehyde]: the “delta p50 0.5 mM” value was −16.80%.

On to `CC(C)n1nccc1-c1nccc(F)c1COc1cccc(O)c1C=O` [Example 74, 2-((4-fluoro-2-(1-isopropyl-1H-pyrazol-5-yl)pyridin-3-yl)methoxy)-6-hydroxybenzaldehyde], for which the “delta p50 0.5 mM” value is −48.4%. For `[2H]C([2H])(Oc1cccc(O)c1C=O)c1c(F)ccnc1-c1ccnn1C(C)C` [Example 75, 2-((4-fluoro-2-(1-isopropyl-1H-pyrazol-5-yl)pyridin-3-yl)methoxy-d2)-6-hydroxybenzaldehyde], the “delta p50 0.5 mM” value is given as −53.7%.

The target in the next experiment is T2, hemoglobin (normal human adult blood) (Homo sapiens, UniProt P68871+P69905).
T2 construct: Normal whole blood was collected from adult healthy donors; from tissue; host or cells: normal human whole blood (red blood cells), adult healthy donors
T2 sequence (P69905 2-142 limits assumed): as the sequence (P69905 2-142 limits assumed) above
T2 sequence (P68871 2-147 limits assumed): as the sequence (P68871 2-147 limits assumed) above
The experiment is described as follows: Time-dependent oxygen equilibrium curve (OEC) studies in normal whole blood. The conditions noted are these: 2 mM compound, 2% DMSO, normal human blood 20% hematocrit, 37° C., 1 h. It is filed as cell-based. As to the method: as §1
The time-dependent OEC studies were conducted on normal human adult blood samples with hematocrit value of 20% in the absence or presence of effectors solubilized in DMSO at final drug and DMSO concentrations of 2 mM and 2%, respectively. […] The mixture was further incubated at 37° C. with shaking. […] After equilibration, the sample was removed by syringe and aspirated into a ABL 700 series table top automated blood gas analyzer (Radiometer America, Inc., Westlake, Ohio) to determine values of total hemoglobin (tHb), methemoglobin (metHb), hematocrit (Hct), pH, partial pressure of oxygen (pO2), and Hb oxygen saturation values (sO2). The measured values of sO2 and pO2 at each partial pressure of oxygen are then subjected to a non-linear regression analysis using the program Scientist (Micromath, Salt Lake City, Utah) with the following equation: […]
This equation was used to calculate P50 and Hill coefficient (N) values. Corresponding control experiments without the test compound (P50control) but containing DMSO were also performed. GBT440 was used as a positive control.
On to `CC(C)n1nccc1-c1ncccc1COc1ccc2c(c1C=O)CCO2` [Example 2, 5-((2-(1-isopropyl-1H-pyrazol-5-yl)pyridin-3-yl)methoxy)-2,3-dihydrobenzofuran-4-carbaldehyde], for which the “delta p50” value is given as −78%. On the same count and under the same terms, under `CC(C)n1nccc1-c1ncccc1COc1cc2c(cc1C=O)OCC2` [Example 3, 5-((2-(1-isopropyl-1H-pyrazol-5-yl)pyridin-3-yl)methoxy)-2,3-dihydrobenzofuran-6-carbaldehyde] stands −62%; under `CC(C)n1nccc1-c1ncccc1COc1ccc2c(c1C=O)OCC2` [Example 4, 6-((2-(1-isopropyl-1H-pyrazol-5-yl)pyridin-3-yl)methoxy)-2,3-dihydrobenzofuran-7-carbaldehyde], −51%; under `CC(C)n1nccc1-c1ncccc1COc1ccc2ccoc2c1C=O` [Example 5, 6-((2-(1-isopropyl-1H-pyrazol-5-yl)pyridin-3-yl)methoxy)benzofuran-7-carbaldehyde], −77%. On the same count and under the same terms, then `CC(C)n1nccc1-c1ncccc1COc1ccc2c(c1C=O)OCO2` [Example 6, 5-((2-(1-isopropyl-1H-pyrazol-5-yl)pyridin-3-yl)methoxy)benzo[d][1,3]dioxole-4-carbaldehyde], with −66%. The same measure, in the same setting: then `CC(C)n1nccc1-c1ncccc1COc1ccc2c(c1C=O)OCCO2` [Example 7, 6-((2-(1-isopropyl-1H-pyrazol-5-yl)pyridin-3-yl)methoxy)-2,3-dihydrobenzo[b][1,4]dioxine-5-carbaldehyde], with −59%. With `CC(C)n1nccc1-c1ncccc1COc1ccc2c(c1C=O)OC(F)(F)O2` [Example 8, 2,2-difluoro-5-((2-(1-isopropyl-1H-pyrazol-5-yl)pyridin-3-yl)methoxy)benzo[d][1,3]dioxole-4-carbaldehyde], the “delta p50” value is reported as −68%.

In the case of `CC(C)n1nccc1-c1ncccc1COc1ccc2c(c1C=O)C(O)C(F)(F)O2` (centres unmarked) [Example 9, 2,2-difluoro-3-hydroxy-5-((2-(1-isopropyl-1H-pyrazol-5-yl)pyridin-3-yl)methoxy)-2,3-dihydrobenzofuran-4-carbaldehyde], the “delta p50” value is reported as −64%. Take `CC(C)n1nccc1-c1ncccc1COc1ccc2c(c1C=O)C(O)C(F)(F)C2` (centres unmarked) [Example 10, 2,2-difluoro-3-hydroxy-5-((2-(1-isopropyl-1H-pyrazol-5-yl)pyridin-3-yl)methoxy)-2,3-dihydro-1H-indene-4-carbaldehyde]: the “delta p50” value is −68%. The same measure, in the same setting: under `CC(C)n1nccc1-c1ncccc1COc1ccn2nnnc2c1C=O` [Example 13, 7-((2-(1-isopropyl-1H-pyrazol-5-yl)pyridin-3-yl)methoxy)tetrazolo[1,5-a]pyridine-8-carbaldehyde] stands −9%; under `CC(C)n1nccc1-c1ncccc1COc1ccc2ocnc2c1C=O` [Example 14, 5-((2-(1-isopropyl-1H-pyrazol-5-yl)pyridin-3-yl)methoxy)benzo[d]oxazole-4-carbaldehyde], −63%. For the compound `CC(C)n1nccc1-c1ncccc1COc1ccc2ncoc2c1C=O` [Example 15, 6-((2-(1-isopropyl-1H-pyrazol-5-yl)pyridin-3-yl)methoxy)benzo[d]oxazole-7-carbaldehyde], the “delta p50” value was −81%.

For `CC(C)n1nccc1-c1ncccc1COc1ccc2sccc2c1C=O` [Example 20, 5-((2-(1-isopropyl-1H-pyrazol-5-yl)pyridin-3-yl)methoxy)benzo[b]thiophene-4-carbaldehyde], the “delta p50” value was −74%. On the same count and under the same terms, then `CC(C)n1nccc1-c1ncccc1COc1ccc2c(c1C=O)CCS2(=O)=O` [Example 21, 5-((2-(1-isopropyl-1H-pyrazol-5-yl)pyridin-3-yl)methoxy)-2,3-dihydrobenzo[b]thiophene-4-carbaldehyde 1,1-dioxide], with −72%. On the same count and under the same terms, then `CC(C)n1nccc1-c1ncccc1CSc1cccc(O)c1C=O` [Example 23, 2-hydroxy-6-(((2-(1-isopropyl-1H-pyrazol-5-yl)pyridin-3-yl)methyl)thio)benzaldehyde], with −62%; and `[2H]C(=O)c1c(O)cccc1OCc1cccnc1-c1ccnn1C(C)C` [Example 24], with −47%; and `[2H]C([2H])([2H])C(n1nccc1-c1ncccc1COc1cccc(O)c1C=O)C([2H])([2H])[2H]` [Example 30, 2-hydroxy-6-((2-(1-(propan-2-yl-1,1,1,3,3,3-d6)-1H-pyrazol-5-yl)pyridin-3-yl)methoxy)benzaldehyde], with −85%. Still for that read-out and setting: then `CC(C)n1nccc1-c1nn(C)c(=O)cc1COc1cccc(O)c1C=O` [Example 59, 2-hydroxy-6-((3-(1-isopropyl-1H-pyrazol-5-yl)-1-methyl-6-oxo-1,6-dihydropyridazin-4-yl)methoxy)benzaldehyde], with −54%; and `CC(C)n1nccc1-c1cn(C)c(=O)cc1COc1cccc(O)c1C=O` [Example 60, 2-hydroxy-6-((5-(1-isopropyl-1H-pyrazol-5-yl)-1-methyl-2-oxo-1,2-dihydropyridin-4-yl)methoxy)benzaldehyde], with −69%; and `CC(C)n1nccc1-c1nccc2c1C(Oc1cccc(O)c1C=O)CO2` (centres unmarked) [Example 61g, 2-hydroxy-6-((4-(1-isopropyl-1H-pyrazol-5-yl)-2,3-dihydrofuro[3,2-c]pyridin-3-yl)oxy)benzaldehyde], with −59%. As to `CC(C)n1nccc1-c1nccc2c1[C@@H](Oc1cccc(O)c1C=O)CO2` [Example 62a, (R)-2-hydroxy-6-((4-(1-isopropyl-1H-pyrazol-5-yl)-2,3-dihydrofuro[3,2-c]pyridin-3-yl)oxy)benzaldehyde], the “delta p50” value is on record as −63%. Still for that read-out and setting: under `CC(C)n1nccc1-c1nccc2c1[C@H](Oc1cccc(O)c1C=O)CO2` [Example 62b, (S)-2-hydroxy-6-((4-(1-isopropyl-1H-pyrazol-5-yl)-2,3-dihydrofuro[3,2-c]pyridin-3-yl)oxy)benzaldehyde] stands −64%.

The values are drawn from US10787430B2, “Hemoglobin modifier compounds and uses thereof” (FronThera U.S. Pharmaceuticals LLC, priority 2016, dated 2020).
